Legend:
[1] = tested on: pAKT (Ser 473); test: TMD-8 Western Blots; assay type: cell-based; settings: for pAKT (Ser 473), Western Blot: TMD-8
Experimental: (§1) Western Blot samples were prepared by lysing 10^6 cells for 30 minutes in 150 μL ice-cold lysis buffer. Protease Inhibitor Cocktail (Roche Diagnostics Corp), and phosphatase inhibitor sets 1 and 2 (EMD Millipore) were also added to the lysis buffer (Cell Signaling Technology). Cells were centrifuged at 12.5 g for 10 minutes at 4° C.; supernatant was collected and transferred to new tube. Sample buffer was added to each lysate, and then boiled at 99° C. for 5 minutes. Protein was loaded into an SDS-PAGE gel and run for 2 h at 125V. After electrophoresis, gel was transferred to Immobilon-F membrane using the X Cell Blot. The membrane was then blocked for 1 h at room temperature in blocking buffer and incubated overnight with primary antibodies diluted in a blocking buffer. The following day, the membranes were washed 3× (5 min each) with TBST; secondary antibodies were added and membrane was incubated for 45 minutes at room temperature, followed by 3×TBST (5 min each). Blots were read using Licor Imager. Primary antibodies included p-AKT (S473), p-BTK (Y223), BTK, p-ERK (T202/Y204), ERK, and actin (Cell Signaling Technologies), and secondary antibodies included IRDye-conjugated anti-mouse and anti-rabbit antibodies; LI-COR. Band intensity was measured using LI-COR imager and LI-COR Odyssey software.

[2] = tested on: pBTK (Y223); test: TMD-8 Western Blots; assay type: cell-based; settings: for pBTK (Y223), Western Blot: TMD-8
Experimental: as §1

[3] = tested on: pErk1/2 (T202/Y204); test: TMD-8 Western Blots; assay type: cell-based; settings: for pErk1/2 (T202/Y204), Western Blot: TMD-8
Experimental: as §1

[4] = tested on: OCI-LY10 cells; test: Apoptosis assay, Annexin V flow cytometry; assay type: cell-based; settings: 48 h, Idelalisib = 156 nM, Compound B = 8 nM, DMSO 29
Experimental: (§2) Apoptosis of Idelalisib in combination with Compound B in two DLBCL cell lines, OCI-Ly10 and TMD-8, was also measured. Cells plated at 0.2×10^6 cells/mL in RPMI 1640 supplemented with 20% […] and 1% penicillin and streptomycin. Cells were treated with compound, 156 nM Idelalisib, Compound B and the combination thereof. Control received DMSO at 0.2%. Cells were then incubated at 37 C for 48 hours. Apoptosis was measured using Annexin V/FITC kit, and analyzed by flow cytometry. Apoptosis was also measured using or Annexin V/7ADD kit (Beckman Coulter). Fluorescence was measured by flow cytometry using BD LSRII and the results were analyzed using FACSDiva.

[5] = tested on: TMD-8 cells; test: Apoptosis assay, Annexin V flow cytometry; assay type: cell-based; settings: 48 h, Idelalisib = 156 nM, Compound B = 8 nM, DMSO 21
Experimental: as §2

[6] = tested on: A20 mutant (TNFAIP3 Q143*) TMD-8 cells; test: 96-hour Cell Titer Glo viability assay, Ibrutinib-resistant TMD-8; settings: for EC50: Homo sapiens, TMD8, read-out: EC50, cell viability; for sensitivity in cell viability assay: TMD8^A20-Q143*, 96 h
[7] = tested on: p-BTK; test: Western Blot / Peggy Sue in TMD8^R cells (Example 7); assay type: cell-based; settings: idelalisib 420 nM, Compound B 320 nM
Experimental: (§3) Idelalisib-resistant (TMD8^R) cell line and passage-matched Idelalisib-sensitive (TMD8^S) cell line were generated according to the procedure described in Example 5 above. To characterize the resistant cells, cell viability assays, RNASeq of multidrug resistance (MDR) family of ABC transporter genes (N=33), apoptosis assays, and phosphoprotein analysis were performed. Cell viability was measured using CellTiter-Glo, as described in Example 1A above. Western blot and protein level analysis were performed after treatment with 420 nM idelalisib, 320 nM Compound B and combination thereof, using Peggy Sue (ProteinSimple) automated Western Blot system. Protein concentration (pg/μL) was quantitated using recombinant protein standards. Normalized AUC were determined for each of the treatment groups, normalized to actin. Apoptosis was assessed by propidium iodide and Annexin V/FITC staining and measured by flow cytometry, as described in Example 1A above. Western Blot with anti-p-AKT (S473) antibody and Peggy Sue were used to determine the phosphorylation state of downstream signaling components.

[8] = tested on: p-AKT S473; test: as above; assay type: cell-based; settings: idelalisib 420 nM, Compound B 320 nM
Experimental: as §3

[9] = tested on: TMD-8 cells with the BTK (C481F) mutation; test: 96-hour Cell Titer Glo viability assay, Ibrutinib-resistant TMD-8; parameters: Emax: dose or concentration left out as unconfirmed; settings: for sensitivity in cell viability assay: TMD8^BTK-C481F, 96 h
[10] = Homo sapiens, TMD8, FIG. 2E, single agent, idelalisib 420 nM, Compound B 320 nM, time not stated, read-out: inhibition to p-AKT (S473)
[11] = Homo sapiens, TMD8, FIG. 2E, single agent, idelalisib 420 nM, Compound B 320 nM, time not stated, read-out: inhibition to p-ERK (T202/Y204)

CC#CC(=O)N1CC[C@@H](n2c(=O)n(-c3ccc(Oc4ccccc4)cc3)c3c(N)ncnc32)C1 [Compound B, 6-amino-9-[(3R)-1-(2-butynoyl)-3-pyrrolidinyl]-7-(4-phenoxyphenyl)-7,9-dihydro-8H-purin-8-one]
inhibition at 0.32 µM [1, 10]: 46% | pAKT (Ser 473), Western Blot ([1]; 2 hr, DMSO 0.45): 0.24 normalized integrated intensity | pAKT (Ser 473), Western Blot ([1]; 24 hr, DMSO 0.54): 0.35 normalized integrated intensity | inhibition at 0.32 µM ([2]; Homo sapiens, TMD8, FIG. 2E, single agent, Compound B 320 nM, time not stated, read-out: inhibition of p-BTK (Y223)): 59% | pBTK (Y223), Western Blot ([2]; 2 hr, DMSO 0.36): 0.16 normalized integrated intensity | pBTK (Y223), Western Blot ([2]; 24 hr, DMSO 0.33): 0.14 normalized integrated intensity | inhibition at 0.32 µM [3, 11]: 48% | pErk1/2 (T202/Y204), Western Blot ([3]; 2 hr, DMSO 1.09): 0.47 normalized integrated intensity | pErk1/2 (T202/Y204), Western Blot ([3]; 24 hr, DMSO 1.49): 0.93 normalized integrated intensity | % Annexin V+ [4]: 26% | % Annexin V+ [5]: 44% | EC50 [6]: > 10 µM | sensitivity in cell viability assay [6]: resistant | p-BTK [7]: inhibited | p-AKT [8]: not | sensitivity in cell viability assay [9]: resistant

CCC(Nc1ncnc2[nH]cnc12)c1nc2cccc(F)c2c(=O)n1-c1ccccc1 (centres unmarked) [Idelalisib, 2-(1-((9H-Purin-6-yl)amino)propyl)-5-fluoro-3-phenylquinazolin-4(3H)-one]
inhibition at 0.42 µM [1, 10]: 58% | pAKT (Ser 473), Western Blot ([1]; 2 hr, DMSO 0.45): 0.19 normalized integrated intensity | pAKT (Ser 473), Western Blot ([1]; 24 hr, DMSO 0.54): 0.12 normalized integrated intensity | pBTK (Y223), Western Blot ([2]; 2 hr, DMSO 0.36): 0.39 normalized integrated intensity | pBTK (Y223), Western Blot ([2]; 24 hr, DMSO 0.33): 0.27 normalized integrated intensity | inhibition at 0.42 µM [3, 11]: 71% | pErk1/2 (T202/Y204), Western Blot ([3]; 2 hr, DMSO 1.09): 0.40 normalized integrated intensity | pErk1/2 (T202/Y204), Western Blot ([3]; 24 hr, DMSO 1.49): 0.55 normalized integrated intensity | % Annexin V+ [4]: 25% | % Annexin V+ [5]: 45% | EC50 [6]: ≥ 4.3 µM | sensitivity in cell viability assay [6]: resistant | p-BTK [7]: not | p-AKT [8]: inhibited | Emax ([9]; Homo sapiens, TMD8, read-out: Emax, growth inhibition): 14% | sensitivity in cell viability assay [9]: resistant

Source: patent US20180353512A1, “COMBINATION THERAPIES FOR TREATING B-CELL MALIGNANCIES” (GILEAD SCIENCES, INC., priority 2015, published 2018)
